Patent US10350210B2, “EGFR and ALK dual inhibitor” (PRECEDO PHARMACEUTICALS CO., LTD, priority 2015, dated 2019)

Key:
NCI-H2228 = assay: Growth of cancer cells (Cell Titer-Glo viability), NCI-H2228; format: cell-based; details: Homo sapiens; NCI-H2228 (wild-type ALK), 72 hrs
BaF3-FL-EGFR-Del19 = assay: Cell growth (Cell Titer-Glo viability), BaF3-FL-EGFR-Del19; format: cell-based; details: Mus musculus; BaF3-FL-EGFR-Del19 (EGFR delE746_A750 mutant kinase), 72 hrs
How it was run: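 Proliferation assay: IL-3-independent BaF3 lines stably expressing TEL-fused human kinase (retroviral MSCV-Puro), plus EGFR-mutant NSCLC lines (HCC827 del19, NCI-H3255 L858R). Read-out: CellTiter-Glo luminescence of viable cells.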

[1] = system: EGFR protein (EGFR delE746_A750, PC-9); assay: Effect on signaling pathway in cells, PC-9; format: cell-based, human; details: PC-9 (EGFR delE746_A750), 4 h
Text: In four cell lines (all purchased from ATCC) including non-small cell lung cancer cell line A549 (expressing wild-type EGFR gene), non-small cell lung cancer cell line H1975 (expressing EGFR L858R/T790M double mutant gene), non-small cell lung cancer cell line H3255 (expressing EGFR L858R mutant gene) and non-small cell lung cancer cell line PC-9 (expressing EGFR delE746_A750 mutant gene), the effect of Compound 1 on EGFR or other protein kinases related to signaling pathways of EGFR such as Stat3, AKT, ErK, eIF4E, 4EBP1, P70S6K was assessed by assaying a number of cellular biochemical and functional endpoints. […] The effect of Compound 1 on phosphorylation of Stat3Y705, AKT T308, AKT 5473, Erk T202/204, EGFR Y1068, P70S6K Thr389, eIF4E Ser209, Erk T202/204, 4EBP1 (Thr37/46) in these cell lines was assayed (FIGS. 1a to 1d).

H3255 = assay: Effect on cell apoptosis (Western Blot, PARP and Caspase 3 cleavage), H3255; format: cell-based; details: H3255 (EGFR L858R), 24 hours
Text: In order to confirm whether the death of cells is through apoptosis or necrosis after administration of drugs, non-small cell lung cancer cell A549 (expressing wild-type EGFR gene), non-small cell lung cancer cell line H1975 (expressing EGFR L858R/T790M double mutant gene), non-small cell lung cancer cell line H3255 (expressing EGFR L858R mutant gene), non-small cell lung cancer cell line H3122 (expressing ALK gene) cell line, and non-small cell lung cancer cell line PC-9 (expressing EGFR delE746_A750 mutant gene) were tested for effect of Compound 1 on cleavage of poly ADP-ribose polymerase PARP which is a DNA repair enzyme and Caspase 3, which were closely related to cell apoptosis. […] Western Blot was used to detect the effect of various concentrations of drugs at various time points on cleavage of poly ADP-ribose polymerase PARP which is a DNA repair enzyme and Caspase 3.

| Compound | GI50 (NCI-H2228) [nM] | GI50 (BaF3-FL-EGFR-Del19) [nM] | concentration able to significantly inhibit the phosphorylation of EGFR protein (also affects AKT and ERK phosphorylation) [1] [µM] | concentration at which evident cleavage of PARP and Caspase 3 could be observed (H3255) [µM] |
| --- | --- | --- | --- | --- |
| C=CC(=O)Nc1cc(Nc2ncc(Cl)c(Nc3ccccc3S(=O)(=O)C(C)C)n2)c(OC)cc1N1CCCN(C)CC1 [Compound 10, N-(5-(5-chloro-4-(2-(isopropylsulfonyl)phenylamino)pyrimidin-2-ylamino)-4-methoxy-2-(4-methyl-1,4-homopiperazin-1-yl)phenyl)acrylamide] | < 3 | – | – | – |
| C=CC(=O)Nc1cc(Nc2ncc(Cl)c(Nc3ccccc3S(=O)(=O)C(C)C)n2)c(OC)cc1N1CCN(CC)CC1 [Compound 1, N-(5-(5-chloro-4-(2-(isopropylsulfonyl)phenylamino)pyrimidin-2-ylamino)-2-(4-ethylpiperazin-1-yl)-4-methoxyphenyl)acrylamide] | – | < 0.3 | 0.3 | 0.03 |
